How the values were obtained:
[1] = tested on: Escherichia coli 33582; assay: Pattern of inhibition using silicone-emulsion CO2 sensors (Table 3); type: cell-based; conditions: 4 h, 37° C., 5×10^7 CFU/ml
Excerpt: (§1) Microbial identification using the described CO2 sensors can also be based on the principle of growth inhibition. This system differs from the classical biochemical identification systems, as identification is based on selective growth inhibition by inhibitory agents, such as dyes, antibiotics, and other substances. Once again, the production of CO2 is the measure of growth. The growth pattern produced in the presence of these inhibitory agents identifies the species of the test microorganism. The amount of growth is compared with a growth control well that contains no inhibitor. A profile is derived using a two-stage quadratic discriminate analysis based on the results derived from the battery of inhibitory agents.
(§2) Microtiter plates (96 flat bottom wells) containing 0.05% xylenol blue silicone-emulsion sensors were filled with 100 microliters of microbial growth medium containing no inhibitors (growth control wells) and eighteen different dyes, antibiotics, and other inhibitory substances. Final concentrations of the inhibitors were achieved after addition of 100 microliters of inoculum (final inoculum of 5×10^7 CFU/ml) of the representative microorganisms.
(§3) After inoculating the microtiter tray, it was sealed with a pressure sensitive plastic plate sealer and initial readings were taken with a reflectance reader. The plate was then placed into a 37° C. incubator. After four hours incubation, the plate was removed and final reflectance readings were taken.

[2] = tested on: Pseudomonas aeruginosa 33584; assay: as above; type: cell-based; conditions: 4 h, 37° C., 5×10^7 CFU/ml
Excerpt: as §1, §2, §3

[3] = tested on: Proteus mirabilis 33583; assay: as above; type: cell-based; conditions: 4 h, 37° C., 5×10^7 CFU/ml
Excerpt: as §1, §2, §3

[4] = tested on: Alcaligenes odorans 33585; assay: as above; type: cell-based; conditions: 4 h, 37° C., 5×10^7 CFU/ml
Excerpt: as §1, §2, §3

[5] = Table 2, cited from earlier work; for pH range: acid-base indicator

Molecule: Acriflavine
- Percent growth as compared to a growth control without antibiotics ([1]; 30 mcg): 5%
- Percent growth as compared to a growth control without antibiotics ([2]; 30 mcg): 84%
- Percent growth as compared to a growth control without antibiotics ([3]; 30 mcg): 68%
- Percent growth as compared to a growth control without antibiotics ([4]; 30 mcg): 55%

Molecule: O=C(O)c1cc(Br)cc(Br)c1O [Dibromosalicyclic acid]
- Percent growth as compared to a growth control without antibiotics ([1]; 750 mcg): 83%
- Percent growth as compared to a growth control without antibiotics ([2]; 750 mcg): 88%
- Percent growth as compared to a growth control without antibiotics ([3]; 750 mcg): 38%
- Percent growth as compared to a growth control without antibiotics ([4]; 750 mcg): 25%

Molecule: CN(C)c1ccc(N=Nc2ccccc2)cc1 [Methyl Yellow]
- pH range [5]: 2.9-4.0 pH

Molecule: O=S(=O)(O)c1ccc(N=Nc2ccc(O)cc2O)cc1 [Tropaeolin O]
- pH range [5]: 11.1-12.7 pH

Molecule: Cc1c(C2(c3cc(Br)c(O)c(Br)c3C)OS(=O)(=O)c3ccccc32)cc(Br)c(O)c1Br [Bromocresol green (blue), Bromocresol green]
- pH range [5]: 3.6-5.2 pH

Molecule: [O-][n+]1ccccc1SSc1cccc[n+]1[O-] [Omadine disulfide]
- Percent growth as compared to a growth control without antibiotics ([1]; 5.5 mcg): 10%
- Percent growth as compared to a growth control without antibiotics ([2]; 5.5 mcg): 94%
- Percent growth as compared to a growth control without antibiotics ([3]; 5.5 mcg): 71%
- Percent growth as compared to a growth control without antibiotics ([4]; 5.5 mcg): 36%

Molecule: CC1(C)S[C@@H]2[C@H](NC(=O)C(C(=O)O)c3ccccc3)C(=O)N2[C@H]1C(=O)O (some centres unmarked) [Carbenicillin]
- Percent growth as compared to a growth control without antibiotics ([1]; 40 mcg): 54%
- Percent growth as compared to a growth control without antibiotics ([2]; 40 mcg): 89%
- Percent growth as compared to a growth control without antibiotics ([3]; 40 mcg): 69%
- Percent growth as compared to a growth control without antibiotics ([4]; 40 mcg): 77%

Molecule: Nc1c(/N=N/c2ccc(-c3ccc(/N=N/c4cc(S(=O)(=O)O)c5ccccc5c4N)cc3)cc2)cc(S(=O)(=O)O)c2ccccc12 [Congo red]
- pH range [5]: 3.0-5.0 pH

Molecule: [N-]=[N+]=[N-] [Sodium azide]
- Percent growth as compared to a growth control without antibiotics ([1]; 75 mcg): 6%
- Percent growth as compared to a growth control without antibiotics ([2]; 75 mcg): 47%
- Percent growth as compared to a growth control without antibiotics ([3]; 75 mcg): 35%
- Percent growth as compared to a growth control without antibiotics ([4]; 75 mcg): 47%

Molecule: Cc1cc(O)c(C(C)C)cc1C1(c2cc(C(C)C)c(O)cc2C)OS(=O)(=O)c2ccccc21 [Thymol blue]
- pH range (acid range) [5]: 1.2-2.8 pH
- pH range (basic range) [5]: 8.0-9.6 pH

Molecule: Cc1c(C2(c3cc(C(C)C)c(O)c(Br)c3C)OS(=O)(=O)c3ccccc32)cc(C(C)C)c(O)c1Br [Bromothymol blue]
- pH range [5]: 6.0-7.6 pH

Molecule: CO[C@@H]1[C@@H](OC(N)=O)[C@@H](O)[C@H](Oc2ccc3c(O)c(NC(=O)c4ccc(O)c(CC=C(C)C)c4)c(=O)oc3c2C)OC1(C)C [Novobiocin]
- Percent growth as compared to a growth control without antibiotics ([1]; 48 mcg): 9%
- Percent growth as compared to a growth control without antibiotics ([2]; 48 mcg): 85%
- Percent growth as compared to a growth control without antibiotics ([3]; 48 mcg): 48%
- Percent growth as compared to a growth control without antibiotics ([4]; 48 mcg): 16%

Molecule: [Cl][Co][Cl] [Cobalt chloride]
- Percent growth as compared to a growth control without antibiotics ([1]; 205 mcg): 27%
- Percent growth as compared to a growth control without antibiotics ([2]; 205 mcg): 52%
- Percent growth as compared to a growth control without antibiotics ([3]; 205 mcg): 17%
- Percent growth as compared to a growth control without antibiotics ([4]; 205 mcg): 35%

Molecule: Azolitmin [Azolitmin (litmus)]
- pH range [5]: 5.0-8.0 pH

Molecule: Cc1cc(O)c(C(C)C)cc1C1(c2cc(C(C)C)c(O)cc2C)OC(=O)c2ccccc21 [Thymolphthalein]
- pH range [5]: 9.3-10.5 pH

Molecule: CN(C)c1ccc(/N=N/c2ccccc2C(=O)O)cc1 [Methyl red]
- pH range [5]: 4.2-6.3 pH

Molecule: Cc1cc(C2(c3cc(C)c(O)c(Br)c3)OS(=O)(=O)c3ccccc32)cc(Br)c1O [Bromocresol purple]
- pH range [5]: 5.2-6.8 pH

Molecule: Brilliant green
- Percent growth as compared to a growth control without antibiotics ([1]; 3 mcg): 104%
- Percent growth as compared to a growth control without antibiotics ([2]; 3 mcg): 101%
- Percent growth as compared to a growth control without antibiotics ([3]; 3 mcg): 84%
- Percent growth as compared to a growth control without antibiotics ([4]; 3 mcg): 37%

Molecule: O=S(=O)(O)c1ccc(N=Nc2ccc(Nc3ccccc3)cc2)cc1 [Tropaeolin OO]
- pH range [5]: 1.3-3.0 pH

Molecule: CC(=O)[O-].[Tl+] [Thallous acetate]
- Percent growth as compared to a growth control without antibiotics ([1]; 150 mcg): 40%
- Percent growth as compared to a growth control without antibiotics ([2]; 150 mcg): 34%
- Percent growth as compared to a growth control without antibiotics ([3]; 150 mcg): 68%
- Percent growth as compared to a growth control without antibiotics ([4]; 150 mcg): 47%

Molecule: O=S1(=O)OC(c2ccc(O)c(Cl)c2)(c2ccc(O)c(Cl)c2)c2ccccc21 [Chlorophenol red]
- pH range [5]: 4.8-6.4 pH

Molecule: O=S1(=O)OC(c2ccc(O)cc2)(c2ccc(O)cc2)c2ccccc21 [Phenol red]
- pH range [5]: 6.8-8.4 pH

Molecule: O=S1(=O)OC(c2cc(Br)c(O)c(Br)c2)(c2cc(Br)c(O)c(Br)c2)c2c(Br)c(Br)c(Br)c(Br)c21 [Tetrabromophenol blue]
- pH range [5]: 3.0-4.6 pH

Molecule: O=S1(=O)OC(c2cc(Br)c(O)c(Br)c2)(c2cc(Br)c(O)c(Br)c2)c2ccccc21 [Bromophenol blue]
- pH range [5]: 3.0-4.6 pH

Molecule: Cc1cc(O)ccc1C1(c2ccc(O)cc2C)OS(=O)(=O)c2ccccc21 [m-Cresol purple]
- pH range (acid range) [5]: 1.0-2.6 pH
- pH range (basic range) [5]: 7.6-9.2 pH

Molecule: O=C1OC(c2ccc(O)cc2)(c2ccc(O)cc2)c2ccccc21 [Phenolphthalein]
- pH range [5]: 8.3-10.0 pH

Molecule: N[C@@H]1CON=C1O [Cycloserine]
- Percent growth as compared to a growth control without antibiotics ([1]; 78 mcg): 13%
- Percent growth as compared to a growth control without antibiotics ([1]; 240 mcg): 8%
- Percent growth as compared to a growth control without antibiotics ([2]; 78 mcg): 56%
- Percent growth as compared to a growth control without antibiotics ([2]; 240 mcg): 66%
- Percent growth as compared to a growth control without antibiotics ([3]; 78 mcg): 107%
- Percent growth as compared to a growth control without antibiotics ([3]; 240 mcg): 26%
- Percent growth as compared to a growth control without antibiotics ([4]; 78 mcg): 116%
- Percent growth as compared to a growth control without antibiotics ([4]; 240 mcg): 27%

Molecule: CN(C)c1ccc2nc3ccc(=[N+](C)C)cc-3sc2c1 [Methylene blue]
- Percent growth as compared to a growth control without antibiotics ([1]; 255 mcg): 20%
- Percent growth as compared to a growth control without antibiotics ([2]; 255 mcg): 90%
- Percent growth as compared to a growth control without antibiotics ([3]; 255 mcg): 80%
- Percent growth as compared to a growth control without antibiotics ([4]; 255 mcg): 56%

Molecule: Cc1cc2nc3ccc(N(C)C)cc3nc2cc1N [Neutral red]
- pH range [5]: 6.8-8.0 pH

Molecule: CCCCCCCCCCCCN [Dodecylamine]
- Percent growth as compared to a growth control without antibiotics ([1]; 18.75 mcg): 99%
- Percent growth as compared to a growth control without antibiotics ([2]; 18.75 mcg): 118%
- Percent growth as compared to a growth control without antibiotics ([3]; 18.75 mcg): 108%
- Percent growth as compared to a growth control without antibiotics ([4]; 18.75 mcg): 106%

Molecule: CN(C)c1ccc(C(=C2C=CC(=[N+](C)C)C=C2)c2ccccc2)cc1 [Malachite green]
- Percent growth as compared to a growth control without antibiotics ([1]; 3 mcg): 40%
- Percent growth as compared to a growth control without antibiotics ([2]; 3 mcg): 87%
- Percent growth as compared to a growth control without antibiotics ([3]; 3 mcg): 107%
- Percent growth as compared to a growth control without antibiotics ([4]; 3 mcg): 66%

Molecule: CN(C)c1ccc(N=Nc2ccc(S(=O)(=O)O)cc2)cc1 [Methyl orange]
- pH range [5]: 3.1-4.4 pH

Molecule: O=c1[nH]c(=O)n([C@H]2C[C@H](O)[C@@H](CO)O2)cc1F [Floxuridine]
- Percent growth as compared to a growth control without antibiotics ([1]; 36 mcg): 55%
- Percent growth as compared to a growth control without antibiotics ([2]; 36 mcg): 79%
- Percent growth as compared to a growth control without antibiotics ([3]; 36 mcg): 35%
- Percent growth as compared to a growth control without antibiotics ([4]; 36 mcg): 75%

Molecule: Alizarin yellow
- pH range [5]: 10.1-12.0 pH

Molecule: Cc1cc(C2(c3ccc(O)c(C)c3)OS(=O)(=O)c3ccccc32)ccc1O [Cresol red]
- pH range (acid range) [5]: 0.2-1.8 pH
- pH range (basic range) [5]: 7.2-8.8 pH

Molecule: CC(=O)OCC1=C(C(=O)O)N2C(=O)[C@@H](NC(=O)Cc3cccs3)[C@H]2SC1 [Cephalothin]
- Percent growth as compared to a growth control without antibiotics ([1]; 13.5 mcg): 53%
- Percent growth as compared to a growth control without antibiotics ([2]; 13.5 mcg): 108%
- Percent growth as compared to a growth control without antibiotics ([3]; 13.5 mcg): 26%
- Percent growth as compared to a growth control without antibiotics ([4]; 13.5 mcg): 66%

Molecule: Colistin
- Percent growth as compared to a growth control without antibiotics ([1]; 13 mcg): 3%
- Percent growth as compared to a growth control without antibiotics ([2]; 13 mcg): 34%
- Percent growth as compared to a growth control without antibiotics ([3]; 13 mcg): 114%
- Percent growth as compared to a growth control without antibiotics ([4]; 13 mcg): -44%

Source: patent US5856175A, “Device for detecting microorganisms” (priority 1996, dated 1999)
